Converted amounts (≈) assume the structure as drawn.

Test systems include Bacillus subtilis 168; Escherichia coli K-12; Streptococcus mutans; Bacillus subtilis; Escherichia coli ML-35p.
Common to all, as to assay: ≥ marks a high value that may be exact or a test limit, other limits are often not marked, values filed in µg/mL are converted to µM
For test [1], the system named is Staphylococcus aureus ATCC BAA-1556.
The subject of test [2] is Staphylococcus aureus USA 300.
Test [3] has as its system Pseudomonas aeruginosa PAO1.
The test system of test [4] is Staphylococcus aureus ATCC 25923.
Test [5] concerns Candida albicans ATCC 2002.
For test [6], the system named is Staphylococcus aureus ATCC 43300.
Test [7] concerns Staphylococcus aureus ATCC 2592.
Test [8] deals with Pseudomonas aeruginosa ATCC 27853.

The term MIC denotes the lowest concentration that inhibits growth of the organism. A lower MIC goes with inhibition by little substance. In test [1], `CC(C)C[C@H](NC(=O)[C@H](CC(C)C)NC(=O)[C@H](CCCCN)NC(=O)[C@H](CC(C)C)NC(=O)[C@H](CC(C)C)NC(=O)[C@H](CC(C)C)NC(=O)[C@H](CC(C)C)NC(=O)[C@H](CCCCN)NC(=O)[C@@H](N)CC(C)C)C(N)=O` [LKLLLLKLL] displayed an MIC of at least 100 µM.
With `CC[C@H](C)[C@H](NC(=O)[C@H](CCCCN)NC(=O)[C@H](CCCN=C(N)N)NC(=O)CNC(=O)[C@H](CC(C)C)NC(=O)[C@H](CO)NC(=O)[C@H](CCCN=C(N)N)NC(=O)[C@H](CC(C)C)NC(=O)CNC(=O)CN)C(=O)N[C@@H](CC(C)C)C(=O)N[C@@H](CCCN=C(N)N)C(=O)N[C@@H](C)C(=O)N[C@@H](Cc1c[nH]c2ccccc12)C(=O)N[C@@H](CCCCN)C(=O)N[C@@H](CCCCN)C(=O)N[C@@H](Cc1ccc(O)cc1)C(=O)NCC(=O)O` [GGLRSLGRKILRAWKKYG], the results for the MIC in the test on Bacillus subtilis 168 and against Escherichia coli K-12 were 8 µM (≈ 16.5 µg/mL) and 2 µM (≈ 4.12 µg/mL), respectively.
For `CC[C@H](C)[C@H](NC(=O)[C@H](C)NC(=O)[C@@H]1CCCN1C(=O)[C@@H](NC(=O)[C@@H](NC(=O)[C@H](Cc1cnc[nH]1)NC(=O)[C@H](CO)NC(=O)[C@@H](NC(=O)[C@@H](NC(=O)[C@H](CO)NC(=O)CNC(=O)[C@H](CC(C)C)NC(=O)[C@H](CC(C)C)NC(=O)CNC(=O)[C@H](CC(C)C)NC(=O)[C@H](CC(C)C)NC(=O)CN)C(C)C)C(C)C)C(C)C)C(C)C)C(=O)N[C@H](C(=O)NCC(=O)N[C@@H](Cc1cnc[nH]1)C(=O)N[C@@H](Cc1ccccc1)C(N)=O)C(C)C` [GLLGLLGSVVSHVVPAIVGHF], the MIC in [2] is 6.2 µM (≈ 12.8 µg/mL); in test [3] it was over 100 µM; with Bacillus subtilis 168, 25 µM (≈ 51.8 µg/mL); with Escherichia coli K-12, at least 100 µM.
For `CC(C)C[C@H](NC(=O)[C@H](CC(C)C)NC(=O)[C@H](CC(C)C)NC(=O)[C@H](CC(C)C)NC(=O)[C@H](CCCCN)NC(=O)[C@H](CC(C)C)NC(=O)[C@H](CCCCN)NC(=O)[C@H](CC(C)C)NC(=O)[C@@H](N)CC(C)C)C(N)=O` [LLKLKLLLL], in [1], the MIC was at least 100 µM.
`CC(C)C[C@H](NC(=O)[C@H](Cc1c[nH]c2ccccc12)NC(=O)[C@H](CC(C)C)NC(=O)[C@H](CC(C)C)NC(=O)[C@H](Cc1c[nH]c2ccccc12)NC(=O)[C@H](Cc1c[nH]c2ccccc12)NC(=O)[C@H](CC(C)C)NC(=O)[C@H](Cc1c[nH]c2ccccc12)NC(=O)[C@@H](N)Cc1c[nH]c2ccccc12)C(N)=O` [WWLWWLLWL] returned an MIC in test [1] of at least 100 µM.
`NC(=O)[C@H](Cc1ccccc1)NC(=O)[C@H](Cc1c[nH]c2ccccc12)NC(=O)[C@H](Cc1c[nH]c2ccccc12)NC(=O)[C@H](Cc1c[nH]c2ccccc12)NC(=O)[C@H](CCCN=C(N)N)NC(=O)[C@H](CCCN=C(N)N)NC(=O)[C@H](CCCN=C(N)N)NC(=O)CNC(=O)CNC(=O)CNC(=O)[C@H](Cc1ccccc1)NC(=O)[C@H](Cc1c[nH]c2ccccc12)NC(=O)[C@H](Cc1c[nH]c2ccccc12)NC(=O)[C@H](Cc1c[nH]c2ccccc12)NC(=O)[C@H](CCCN=C(N)N)NC(=O)[C@H](CCCN=C(N)N)NC(=O)[C@@H](N)CCCN=C(N)N` [RRRWWWFGGGRRRWWWF] displayed an MIC against Streptococcus mutans of 6.3 µM (≈ 16 µg/mL).
The molecule `CC(C)C[C@H](NC(=O)[C@H](Cc1cnc[nH]1)NC(=O)[C@H](CCCCN)NC(=O)[C@H](Cc1c[nH]c2ccccc12)NC(=O)[C@H](CCCN=C(N)N)NC(=O)[C@H](CCCCN)NC(=O)[C@H](Cc1ccccc1)NC(=O)[C@H](CC(C)C)NC(=O)[C@@H](N)CCCCN)C(=O)N[C@@H](Cc1ccccc1)C(=O)N[C@@H](CCCN=C(N)N)C(=O)O` [KLFKRWKHLFR] had an MIC in the test with Streptococcus mutans of at least 40.1 µM.
With `CC(C)C[C@H](NC(=O)[C@H](CC(C)C)NC(=O)[C@H](CC(C)C)NC(=O)[C@H](CCCCN)NC(=O)[C@H](CCCCN)NC(=O)[C@H](CC(C)C)NC(=O)[C@H](CC(C)C)NC(=O)[C@H](CC(C)C)NC(=O)[C@@H](N)CC(C)C)C(N)=O` [LLLLKKLLL], in test [1], the MIC is at least 100 µM.
`CC[C@H](C)[C@H](NC(=O)[C@H](CCCCN)NC(=O)[C@H](CC(=O)O)NC(=O)[C@H](CC(C)C)NC(=O)[C@@H](NC(=O)[C@H](CC(N)=O)NC(=O)[C@H](CCC(N)=O)NC(=O)[C@@H](NC(=O)[C@H](Cc1ccccc1)NC(=O)CNC(=O)[C@H](CCCCN)NC(=O)CNC(=O)[C@H](C)NC(=O)[C@H](CC(N)=O)NC(=O)[C@H](CCCCN)NC(=O)[C@@H](NC(=O)[C@@H](NC(=O)[C@H](CCC(=O)O)NC(=O)[C@H](Cc1c[nH]c2ccccc12)NC(=O)[C@H](CC(C)C)NC(=O)[C@@H](N)CO)[C@@H](C)O)[C@@H](C)CC)[C@@H](C)CC)[C@@H](C)CC)C(=O)N[C@@H](CCCN=C(N)N)C(=O)O` [SLWETIKNAGKGFIQNILDKIR]: the MIC came out at 3.69 µM (≈ 9.38 µg/mL) in [4], 8.6 µM (≈ 21.9 µg/mL) against Bacillus subtilis, 14.7 µM (≈ 37.5 µg/mL) in the test on Escherichia coli ML-35p and 12.9 µM (≈ 32.7 µg/mL) in test [5].
In test [1], `CC[C@H](C)[C@H](NC(=O)[C@H](Cc1c[nH]c2ccccc12)NC(=O)[C@H](CCCN=C(N)N)NC(=O)[C@H](CCCN=C(N)N)NC(=O)[C@H](Cc1c[nH]c2ccccc12)NC(=O)[C@@H](N)CCCCN)C(=O)N[C@@H](CCCN=C(N)N)C(=O)N[C@@H](CC(C)C)C(=O)N[C@@H](CC(C)C)C(N)=O` [KWRRWIRLL] yielded an MIC of 25 µM (≈ 33.1 µg/mL).
On the same count and under the same terms, as for `CC(C)C[C@H](NC(=O)[C@H](Cc1c[nH]c2ccccc12)NC(=O)[C@H](Cc1c[nH]c2ccccc12)NC(=O)[C@H](CC(C)C)NC(=O)[C@H](Cc1c[nH]c2ccccc12)NC(=O)[C@H](Cc1c[nH]c2ccccc12)NC(=O)[C@H](CCCN=C(N)N)NC(=O)[C@H](Cc1c[nH]c2ccccc12)NC(=O)[C@@H](N)Cc1c[nH]c2ccccc12)C(N)=O` [WWRWWLWWL], the figure is 3.12 µM (≈ 4.74 µg/mL).
On to `CC[C@H](C)[C@H](NC(=O)[C@H](CC(C)C)NC(=O)[C@H](C)NC(=O)[C@@H]1CCCN1C(=O)[C@H](CCCN=C(N)N)NC(=O)[C@@H](N)Cc1ccccc1)C(=O)N[C@H](C(=O)N[C@@H](CCCN=C(N)N)C(=O)N[C@H](C(=O)N[C@@H](CCCCN)C(=O)NCC(=O)N[C@H](C(=O)N[C@@H](CCCN=C(N)N)C(=O)N[C@@H](CC(C)C)C(=O)O)[C@@H](C)O)[C@@H](C)O)C(C)C` [FRPALIVRTKGTRL], for which the MIC (in test [2]; against Escherichia coli K-12) was 30 µM (≈ 48.8 µg/mL) throughout.
`CC(C)C[C@H](NC(=O)[C@H](Cc1c[nH]c2ccccc12)NC(=O)[C@H](Cc1c[nH]c2ccccc12)NC(=O)[C@H](CC(C)C)NC(=O)[C@H](CCCN=C(N)N)NC(=O)[C@H](Cc1c[nH]c2ccccc12)NC(=O)[C@@H](N)CC(C)C)C(=O)N[C@@H](Cc1c[nH]c2ccccc12)C(=O)N[C@@H](Cc1c[nH]c2ccccc12)C(N)=O` [LWRLWWLWW] registered an MIC in test [1] of 3.12 µM (≈ 4.51 µg/mL).
Take `CC[C@H](C)[C@H](NC(=O)[C@H](CCCN=C(N)N)NC(=O)[C@H](CCC(N)=O)NC(=O)[C@@H](NC(=O)[C@@H](NC(=O)[C@H](CCCN=C(N)N)NC(=O)[C@H](CCCCN)NC(=O)[C@H](Cc1ccccc1)NC(=O)CN)[C@@H](C)CC)C(C)C)C(=O)N[C@@H](C)C(=O)N[C@@H](CC(=O)O)C(=O)N[C@@H](Cc1ccccc1)C(=O)N[C@@H](CC(C)C)C(=O)N[C@@H](CCCN=C(N)N)C(=O)N[C@@H](CC(N)=O)C(=O)N[C@@H](CC(C)C)C(=O)N[C@H](C(N)=O)C(C)C` [GFKRIVQRIADFLRNLV]: the MIC in test [2] was 7.5 µM (≈ 15.3 µg/mL); with Escherichia coli K-12 it was at least 60 µM.
In turn, `CC(C)C[C@H](NC(=O)[C@H](Cc1c[nH]c2ccccc12)NC(=O)[C@H](CCCN=C(N)N)NC(=O)[C@H](CC(C)C)NC(=O)[C@H](Cc1c[nH]c2ccccc12)NC(=O)[C@H](CC(C)C)NC(=O)[C@H](CC(C)C)NC(=O)[C@H](Cc1c[nH]c2ccccc12)NC(=O)[C@@H](N)Cc1c[nH]c2ccccc12)C(N)=O` [WWLLWLRWL] registered an MIC in test [1] of 3.12 µM (≈ 4.28 µg/mL).
For `CC[C@H](C)[C@H](NC(=O)CNC(=O)[C@@H](NC(=O)[C@H](C)NC(=O)[C@@H](NC(=O)[C@H](CCCCN)NC(=O)[C@@H](NC(=O)[C@@H](NC(=O)[C@@H]1CCCN1C(=O)CNC(=O)[C@H](CC(C)C)NC(=O)[C@@H](N)Cc1ccccc1)[C@@H](C)CC)[C@@H](C)CC)[C@@H](C)CC)[C@@H](C)O)C(=O)N[C@@H](CC(C)C)C(=O)N1CCC[C@H]1C(=O)N[C@H](C(=O)N[C@@H](C)C(=O)N[C@H](C(=O)N[C@H]1CSSC[C@@H](C(=O)O)NC(=O)[C@H](CCCCN)NC(=O)[C@H](CCCCN)NC(=O)[C@H](CC(C)C)NC(=O)[C@H](Cc2ccccc2)NC(=O)[C@H](CCCCN)NC1=O)[C@@H](C)CC)[C@@H](C)O` [FLGPIIKIATGILPTAICKFLKKC], the MIC in test [4] stood at 1.45 µM (≈ 3.75 µg/mL); in the test on Bacillus subtilis it was 1.81 µM (≈ 4.69 µg/mL); with Escherichia coli ML-35p, 14.5 µM (≈ 37.5 µg/mL); in test [6], 24.1 µM (≈ 62.5 µg/mL); in [5], 1.81 µM (≈ 4.69 µg/mL).
Take `CSCC[C@H](NC(=O)[C@H](CO)NC(=O)[C@H](CO)NC(=O)[C@H](CC(C)C)NC(=O)[C@H](C)NC(=O)CNC(=O)[C@H](Cc1ccccc1)NC(=O)[C@H](CC(C)C)NC(=O)[C@H](CC(C)C)NC(=O)[C@@H]1CCCN1C(=O)[C@H](Cc1ccccc1)NC(=O)[C@@H](N)Cc1ccccc1)C(=O)N[C@@H](CCSC)C(=O)N1CCC[C@H]1C(=O)N[C@@H](CCCCN)C(=O)N[C@@H](CC(C)C)C(=O)N[C@@H](Cc1ccccc1)C(N)=O` [FFPLLFGALSSMMPKLF]: the MIC in [7] worked out at 1.28 µM (≈ 2.5 µg/mL); with Bacillus subtilis, 7.71 µM (≈ 15 µg/mL); in test [8] it was 1.28 µM (≈ 2.5 µg/mL); in test [3], 1.28 µM (≈ 2.5 µg/mL); against Escherichia coli ML-35p, 15.4 µM (≈ 30 µg/mL); in [6] it was 1.28 µM (≈ 2.5 µg/mL). This molecule had an MIC in [5] of 2.57 µM (≈ 5 µg/mL).

Values taken from DBAASP.
